Series [1] can be described thus: Solubility noted in the LSD1 screen. Type of series: physicochemical. To be noted: LSD1 screen at 10 μM.
The next series deals with murine myocardium. The series is described as follows: Infarct area in myocardial cross-section after induced myocardial ischemia. Type of series: in vivo, mouse. Particulars: 10 mg/kg; versus vehicle. An excerpt: In the Langendorff preparation, the heart is removed with preservation of a portion of the afferent and efferent blood vessels; it is then perfused in a reverse fashion via the aorta, usually with a nutrient rich, oxygenated solution (e.g. Krebs-Henseleit solution or Tyrode's solution). The backwards pressure causes the aortic valve to shut, forcing the solution into the coronary vessels, which normally supply the heart tissue with blood. This feeds nutrients and oxygen to the cardiac muscle, allowing it to continue beating for several hours after its removal from the animal. This is a useful preparation because it allows the addition of drugs (via the perfusate) and observation of their effect on the heart without the complications involved with in vivo experimentation, such as neuronal and hormonal effects from living animal (Broadley, K. J., 1970). A pressure transducer is inserted to measure a number of cardiac performance parameters including left ventricular developed pressure, left ventricular end diastolic pressure, heart rate, etc. […]
The compounds described herein may be used to protect the myocardium from injury following an ischemic event. […] Results are expressed as a percentage of the area of infarct with respect to total surface area. […]

Series [2] addresses human recombinant spermine oxidase (Homo sapiens, UniProt Q9NWM0). The series is described as follows: Inhibition of spermine oxidase. It counts as biochemical. How it is done: The assay procedure is very similar to the assay used for LSD1, except that the reaction is conducted by human recombinant spermine oxidase. the assay for C1 and related analogues was conducted as previously described (Goodwin et al., 2011).

The test system of the next series is mouse heart. The series is described as follows: Langendorff isolated heart model, ischemia/reperfusion. To be noted: versus vehicle; for left ventricular end diastolic pressure: 1 hour pre-treatment with 1.0 μM; for left ventricular developed pressure: pre-treatment before ischemia, after reperfusion. The source says:
In the Langendorff preparation, the heart is removed with preservation of a portion of the afferent and efferent blood vessels; it is then perfused in a reverse fashion via the aorta, usually with a nutrient rich, oxygenated solution (e.g. Krebs-Henseleit solution or Tyrode's solution). The backwards pressure causes the aortic valve to shut, forcing the solution into the coronary vessels, which normally supply the heart tissue with blood. This feeds nutrients and oxygen to the cardiac muscle, allowing it to continue beating for several hours after its removal from the animal. This is a useful preparation because it allows the addition of drugs (via the perfusate) and observation of their effect on the heart without the complications involved with in vivo experimentation, such as neuronal and hormonal effects from living animal (Broadley, K. J., 1970). A pressure transducer is inserted to measure a number of cardiac performance parameters including left ventricular developed pressure, left ventricular end diastolic pressure, heart rate, etc. Following the Langendorff procedure, the myocardium is cut into cross sections, and infarcted tissue is identified by the inability to take up stain; thus infarcted areas appear white, while healthy areas appear red.
The compounds described herein may be used to protect the myocardium from injury following an ischemic event. In FIG. 6, a mouse heart was subjected to ischemia by ligation of the afferent vessel in a Langendorff preparation, as described above. Prior to the induction of ischemia, hearts were either pre-treated with vehicle, verlindamycin or C1. […] In FIG. 8, the results of an experiment to measure infarcted tissue in a myocardial cross-section are shown. Results are expressed as a percentage of the area of infarct with respect to total surface area. […] The HDAC1/CoREST/LSD1 complex was pulled down with an LSD1 antibody and a Western blot for CoREST was performed.

In series [3] the test system is HDAC1/CoREST/LSD1 complex. The series is described as follows: Pull-down of HDAC1/CoREST/LSD1 complex with HDAC1 antibody, Western blot for CoREST. It counts as cell-based. Particulars: primary feline cardiomyocytes, 3 h, 5 μM. An excerpt: Co-immunoprecipitation (pull down) of intact protein complexes works by selecting an antibody that targets a known protein that is believed to be a member of a larger complex of proteins. By targeting this known member with an antibody it may become possible to pull the entire protein complex out of solution and thereby identify unknown members of the complex. This works when the proteins involved in the complex bind to each other tightly, making it possible to pull multiple members of the complex out of solution by latching onto one member with an antibody. This concept of pulling protein complexes out of solution is sometimes referred to as a “pull-down”. Co-immunoprecipitation is a powerful technique that is used regularly by molecular biologists to analyze protein-protein interactions. The co-repressor HDAC:CoREST:LSD1 complex was initially pulled down with an antibody for HDAC1 and a Western blot for CoREST was performed.
(In general: A western blot detects proteins with antibodies after separation by electrophoresis.)

In another series the test system is LSD1:CoREST complex. Kind of series: Pull-down of HDAC1/CoREST/LSD1 complex with LSD1 antibody, Western blot for CoREST. It counts as cell-based. Particulars: primary feline cardiomyocytes, 3 h, 1 μM; LSD1 antibody pull-down. As to the method: Co-immunoprecipitation analysis for LSD1:CoREST complex following treatment from primary rat cardiomyocytes with 5 μM and 1 μM C1 was performed as described above. Lysates pulled down with LSD1 antibody and western blotted for CoREST (n=2).

For series [4], the system named is H3K4me2 levels in Calu 6 human anaplastic lung tumor cell line. Kind of series: H3K4 methylation in tumor cells by Western blot. Type of series: cell-based. To be noted: Calu 6 cells. How it is done: To verify that C1 and C15 have epigenetic effects in tumor cells, changes in H3K4 methylation in the Calu 6 human anaplastic lung tumor cell line were monitored, as shown in FIG. 4.
Following treatment, cells were washed twice in sterile filtered cold 1×PBS. Cells were then lysed in 200 μL of lysis buffer (20 mM Tris, 150 mM NaCl, 1 mM EDTA, 1 mM EGTA, 1 mM β-glycerol, 2.5 mM sodium pyrophosphate, and 1% Triton X-100) Protease and phosphatase inhibitors were added to these buffers (1:100 dilutions of phosphatase inhibitor cocktail I and II and protease inhibitor cocktail; Sigma). The cells were then incubated on ice for 15 min, and insoluble material was pelleted by centrifugation at 4° C.
Protein concentrations were determined by Pierce BCA protein assay kit (Thermo Sci, Product #23225). Cell lysates were subjected to SDS-PAGE, and Western blot analysis was performed with the appropriate antibodies. Primary antibodies against H3K4me2, H3K4me1, and LSD1 were from Cell Signaling; Histone H3 primary antibody was from Millipore. Proteins were visualized by enhanced chemiluminescence (ECL).

The target in another series is T1, human recombinant LSD1 (Homo sapiens, UniProt O60341).
T1 construct: purchased Cayman Chemical Item #700120
Kind of series: LSD1 inhibitor screening assay (Cayman Chemical kit, fluorometric). To be noted: 10 μM compound; Chembridge analogues table. It counts as biochemical. How it is done: LSD1 Inhibitor Screening Assay:
(§1) In short, 10 μM of compound was combined with the fluorometic substrate 10-acetyl-3,7-dihydroxyphenoxazine, horseradish peroxidase, human recombinant LSD1, and 100 μM dimethylated lysine at residue 4 [ARTK(diMe)[…]] (Seq. ID No: 1) for 30 mins at 37° C. Plates were read using an excitation wavelength of 535 nm and an emission wavelength of 590 nm with a SpectraMax M5 Microplate reader.

Series [5] deals with recombinant human LSD1/CoREST (Homo sapiens, UniProt O60341). Kind of series: IC50 determination by dose-response curve against recombinant LSD1/CoREST. Type of series: biochemical. How it is done: Using a dose-response curve, the IC50 of C1 and C15 were calculated.
as §1

Here are results for 4 compounds from US10118903B2, “Aminotriazole-based KDM1A inhibitors as epigenetic modulators” (MUSC FOUNDATION FOR RESEARCH DEVELOPMENT, priority 2014, dated 2018).

Entries after “also recorded” stand apart in the source; their conditions may differ.

Sequence of human recombinant spermine oxidase (Q9NWM0 whole entry): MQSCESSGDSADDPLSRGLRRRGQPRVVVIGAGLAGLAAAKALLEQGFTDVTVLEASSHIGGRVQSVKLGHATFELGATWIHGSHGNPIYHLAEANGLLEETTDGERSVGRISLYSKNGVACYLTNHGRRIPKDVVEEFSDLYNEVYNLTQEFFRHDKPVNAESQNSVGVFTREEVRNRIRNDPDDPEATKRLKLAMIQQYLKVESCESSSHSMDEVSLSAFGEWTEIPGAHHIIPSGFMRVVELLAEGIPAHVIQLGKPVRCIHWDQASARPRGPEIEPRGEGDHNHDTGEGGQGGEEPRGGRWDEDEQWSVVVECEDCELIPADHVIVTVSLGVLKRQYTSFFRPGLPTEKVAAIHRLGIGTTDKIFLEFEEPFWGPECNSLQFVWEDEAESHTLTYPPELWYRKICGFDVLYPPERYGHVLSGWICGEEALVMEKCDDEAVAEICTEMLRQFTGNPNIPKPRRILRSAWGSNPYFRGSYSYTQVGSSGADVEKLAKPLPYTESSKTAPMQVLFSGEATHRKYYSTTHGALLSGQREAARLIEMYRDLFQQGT

In the case of `CSc1ccc(Oc2cccc(Cl)c2CNc2nnc(N)[nH]2)cc1` [Compound 5l, N^3-(2-chloro-6-(4-((methyl)thio)phenoxy)benzyl)-4H-1,2,4-triazole-3,5-diamine], in series [1], the “solubility (reason why % inhibition was not determined)” value is reported as “Not Determined (Insolube)”.

By IC50 is commonly meant the midpoint of a concentration-inhibition curve. As to `Nc1nnc(NCc2c(Cl)cccc2Oc2ccccc2)[nH]1` [Compound C1, N^3-(2-chloro-6-phenoxybenzyl)-4H-1,2,4-triazole-3,5-diamine], the “infarct area as a percentage of the total left ventricular area” value with murine myocardium is given as “most effective in limiting the spread of infarct; also recorded: significantly more effective than treatment with vehicle”. The “mode of inhibition of spermine oxidase” value in series [2] was “competitive inhibitor”. Besides, the “inhibition of spermine oxidase compared with verlindamycin” value in series [2] (assayed between 0.1 and 1.0 μM) is “improved inhibition of spermine oxidase over verlindamycin”. Moreover, in series [2] (assayed between 0.1 and 1.0 μM, read-out: IC50 against spermine oxidase (SMOX)), the IC50 came out at 40 nM. In the series on mouse heart, the “left ventricular end diastolic pressure” value was “reduced to near-normal levels” and the “left ventricular developed pressure” value is on record as “restored to nearly normal levels”. Also, the “association of HDAC1 and CoREST” value in [3] was “disrupted the association of HDAC1 and CoREST”. Moreover, the “association between LSD1 and CoREST” value with LSD1:CoREST complex is “disrupted the association between LSD1 and CoREST”. In addition, the “effect on H3K4 methylation” value in series [4] (24 or 48 hours) is on record as “did not appear to have a significant effect”.

As usually defined, the inhibition is the share of the control response that was lost under treatment. Consider `COc1ccccc1CNc1n[nH]c(NCc2ccccc2OC)n1` [Compound C15, N^3,N^5-bis(2-methoxybenzyl)-1H-1,2,4-triazole-3,5-diamine], for which the “inhibition of spermine oxidase compared with verlindamycin” value in series [2] (assayed between 0.1 and 1.0 μM) is reported as “improved inhibition of spermine oxidase over verlindamycin”. Besides, the “association of HDAC1 and CoREST” value in series [3] was “disrupted the association of HDAC1 and CoREST”. Besides, the inhibition at 10 µM on human recombinant LSD1 stood at 74.9 ± 1.9%. In series [5], the IC50 was 2200 nM. For the same compound, the H3K4me2 levels result in [4] (72 hours) was “significant, dose-dependent increase”.

On to “Verlindamycin tetrahydrochloride [Compound 2d, reference compound]”, for which, in the series with murine myocardium, the “infarct area as a percentage of the total left ventricular area” value was “significantly more effective than treatment with vehicle”. For the same compound, in the series on mouse heart, the “left ventricular end diastolic pressure” value is recorded as “reduced to near-normal levels” and the “left ventricular developed pressure” value is “restored to nearly normal levels”. In the series on LSD1:CoREST complex, the “association between LSD1 and CoREST” value is listed as “Only compound C1 disrupted the association”.
